Measured values as given in patent US9161986B2, “Nanoparticle containing prostaglandin I2 derivative” (LTT BIO-PHARMA CO., LTD., priority 2011, dated 2015).

Assays:
[1] = system: primary pulmonary hypertension; details: primary pulmonary hypertension group treated with epoprostenol; previous studies; cited from earlier work
[2] = measure of chemical stability; cited from earlier work
[3] = Formation of insoluble complex in presence or absence of ferric chloride; format: physicochemical; details: various amounts of diethanolamine
Procedure: To confirm this, the pH change of the solution and the percentage of beraprost sodium remaining in its supernatant when various amounts of diethanolamine (DEA) was added to the solution in the presence or absence of ferric chloride were examined.
Specifically, the pH of the solution was adjusted by adding diethanolamine to the aqueous solution of an iron ion of a specific concentration (455 mM) and beraprost sodium (32.5 mM) so that various pHs of the solution were obtained. The solution (suspension) was centrifuged at 16,500 g for 10 minutes, and the amount of beraprost sodium dissolved in the supernatant was determined by HPLC. The pH of the solution was also measured.
On the other hand, the pH of the solution was adjusted by adding diethanolamine to the aqueous solution of beraprost sodium (32.5 mM) in which hydrochloric acid was used instead of an iron ion of a specific concentration so that various pHs of the solution were obtained. The solution (suspension) was centrifuged at 16,500 g for 10 minutes, and the amount of beraprost sodium dissolved in the supernatant was determined by HPLC. The pH of the solution was also measured.

[4] = system: pulmonary vascular resistance; details: treatment for three months, clinical trials; cited from earlier work
[5] = system: cAMP; assay: Continuous increase of plasma cAMP after intravenous administration (cAMP ELISA); format: in vivo, male Wister rats; details: intravenous via tail vein, rats, n=2; FIG. 6
Procedure: Prostacyclin leads to relaxation of vascular smooth muscle and exerts a dilation effect on a pulmonary vessel by activating adenyl cyclase via a prostacyclin receptor on the vascular smooth muscle and increasing the concentration of cAMP. Therefore, the present inventors investigated whether cAMP increased continuously when the beraprost sodium-containing nanoparticle of the present invention was administered. Either beraprost sodium-containing nanoparticles or beraprost sodium (comparative example) was administered to male Wister rats (5 week old, n=2) intravenously via a tail vein. After administration, a tail vein different from the administration site was cut with a scalpel at specified times, and blood samples were collected by using blood collection tubes. […] This blood plasma sample was diluted as appropriate and cAMP contained in the […] was determined by using a cAMP ELISA kit. The method of measurement followed the protocol made by Assay Designs Inc.

[6] = in vivo; cited from earlier work
[7] = oral; cited from earlier work
[8] = Evaluation of drug retention in blood after intravenous administration; format: in vivo, male Wister rats; details: intravenous via tail vein, rats, n=3; FIG. 5
Procedure: Either beraprost sodium nanoparticles or beraprost sodium (comparative example) was administered to male Wister rats (5 week old, n=3) intravenously via a tail vein. After administration, a tail vein different from the administration site was cut with a scalpel at specified times, and blood samples were collected by using blood collection tubes (heparin-treated). A sample solution was prepared by adding 50 μL, of the blood to a microfuge tube containing 1,4-dioxane (150 μL). The sample solution was centrifuged (13,200 rpm, 4° C., and 10 minutes), and then, beraprost sodium contained in the supernatant was determined by HPLC.

SMILES	three-year survival rate [1]	chemical half-life [2]	formation of insoluble complex ([3]; in the absence of ferric chloride (hydrochloric acid instead), FIG. 3)	formation of insoluble complex ([3]; in the presence of ferric chloride, FIG. 2)	pulmonary vascular resistance [4]	continuous increase of cAMP in the plasma [5]	biological half-life [6]	half-life of the blood concentration [7] [h]	drug retention in the blood [8]
CCCCC[C@H](O)/C=C/[C@@H]1[C@H]2C/C(=C/CCCC(=O)O)O[C@H]2C[C@H]1O [epoprostenol]	about 70%	about 10 minutes	–	–	–	–	–	–	–
CC#CCC(C)[C@H](O)/C=C/[C@@H]1[C@H]2c3cccc(CCCC(=O)[O-])c3O[C@H]2C[C@H]1O.[Na+] (stereo partly drawn) [beraprost sodium]	–	–	no insoluble complex was formed	formation of an insoluble complex	significantly decreased the pulmonary vascular resistance	no continuous increase of cAMP was observed	about 1.1 hours	1.1	little beraprost sodium existed in the blood as early as 3 hours after its administration
